Measurements: US12168673B2 (Mitopower, Inc., priority 2022, dated 2024)
Read-outs that look alike come from different tables or passages of the source.

How the values were obtained:
Kinetic solubility = format: physicochemical; settings: for solubility at 1.5 h: aqueous buffer, kinetic from dmso stock, 0.1 M phosphate buffered saline pH 7.4, target 100 μM; for % Solubility: at 100 μM, 0.1 M phosphate buffered saline pH 7.4
Protocol: The target compound concentration was 100 μM (kinetic), the assay buffer was 0.1 M phosphate buffered saline pH 7.4, the mixing period was 1.5 h (kinetic). The sample was prepared by centrifugation or filtration and the detection method used was HPLC with UV-vis spectrometry.

[1] = Distribution in kidney and liver tissue after 24 hrs in rats; settings: compared with nicotinic acid
[2] = Human hepatocyte clearance; format: in vitro ADME; settings: human hepatocytes
Procedure, shortened: (§1)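 Cryopreserved human hepatocytes at a 2 million cell working stock mixed 1:1 with 2 μM compound working stock at 37 °C, in duplicate. Samples quenched in acetonitrile with internal standard at 0, 15, 30, 60 and 90 min, then analysed by LC-MS/MS.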

[3] = PK study in rats (plasma); format: in vivo; settings: rats; for half-life: plasma
[4] = Long term solid stability at −15° C. (purity by UPLC); format: physicochemical; settings: for Purity % by UP LC: solid state, −15° C. (freezer)
Protocol: The compound from this vial was assessed for purity by UPLC at two different timepoints: Day 0 and Day 93 (3 months).

Human Plasma Protein = experiment: in vitro; settings: human, plasma
Protocol: (§2) The test compounds were weighed and prepared as 10 mM stocks in 100% DMSO. 10 μM is the final test concentration for all compounds.
(§3) The samples were prepared by spiking test compound(s) in plasma at 10 μM final concentration. 200 μL of plasma containing the test compound was added into the donor well (RED Chamber) of the insert. Simultaneously 350 μL of dialysis buffer (1×PBS) was added into the receiver well (white chamber). Two measurements were made for each test compound. The plate was covered with a sealer and incubated at 37° C. degrees on an orbital shaker at 500 rpm for 5 hours.
(§4) After incubation, 25 μl of plasma (RED chamber) and 25 μl of buffer (white chamber) samples were separately collected into separate centrifugation tubes. Plasma and buffer samples were precipitated with 200 μL of 100% acetonitrile containing internal standards. 25 μl of T0 (T Zero) plasma samples (samples before 5 hours incubation) were collected (To samples were processed immediately after the preparation of plasma working stock solution. These samples serve as a measure for calculating the percentage recovery of the test compound and precipitated using 100% acetonitrile containing internal standards). The samples were vortexed at 1000 rpm for 5 min and centrifuged at 4000 rpm for 10 min. The supernatant was diluted 2-fold with water and injected into LC-MS/MS.
(§5) The % of Plasma bound/unbound fraction was calculated by the following equation: % Unbound or % free=100*(Fc/Tc); % Recovery=100 (Fc+Tc)/[…] where Tc=Total compound concentration as determined by the calculated concentration on the plasma side of the membrane (concentration in plasma chamber), Fc=Free compound concentration as determined by the calculated concentration on the buffer side of the membrane (concentration in buffer chamber) and T0=Total compound concentration as determined before dialysis.

[5] = Caco-2 permeability assay; settings: human
From the text: The endpoint measured is the intestinal permeability expressed as apparent permeability—Papp value. All permeability values are represented as ×10^−6 cm/sec.

[6] = Solid state stability (purity by UPLC); format: physicochemical
Protocol: Compounds 100, 101 and 102 were kept in glass vials at three different locations at temperatures of […], 2-8° C. and −20° C. in order to assess solid state stability at room temperature, refrigerated conditions and in a deep freezer. The compounds from these vials were assessed for purity by UPLC at three different timepoints 0 hrs, 24 hrs and 48 hrs. Table 2 depicts the results obtained for solid state stability at 25° C., 2-8° C. and −20° C. respectively. Purity measurements were made at 0 hrs, 24 hours and 48 hours.

human hepatocytes [7] = experiment: Human hepatocyte stability
human hepatocytes [8] = experiment: Human hepatocyte clearance; format: in vitro ADME
Procedure, shortened: as §1

[9] = Human plasma protein binding (RED dialysis); settings: human, plasma, human plasma, 10 μM, 5 hours dialysis
Protocol: as §2, §3, §4, §5

[10] = read-out: Mean Solubility (μg/mL)
[11] = rat, Group 2: compound 100 83 mg/kg IV, analyte compound 100 in plasma

## O=C(OC1O[C@H](CO)[C@@H](O)[C@H]1O)c1cccnc1 (stereo partly drawn) [Compound 100, (3R, 4S, 5R)-3,4-dihydroxy-5-(hydroxymethyl) tetrahydrofuran-2-yl nicotinate]
Kinetic solubility; read-out: Mean Solubility
  solubility at 1.5 h: 96.5 µM
Kinetic solubility; [10]
  solubility at 1.5 h: 24.6 µg/mL
Kinetic solubility
  % Solubility: 96%
[1]
  delivery of nicotinic acid into the tissues: more efficiently than nicotinic acid
[2]
  half-life at 1 μM: 2.38 h
  hepatocyte CLint at 1 μM: 4.86 µL/min/1e6 cells
[3]; rat, iv, 83 mg/kg, Group 2: compound 100 83 mg/kg IV, analyte compound 100 in plasma, read-out: T1/2 (converted)
  half-life: 1.01 ± 0.22 h
[3]; rat, iv, 83 mg/kg, delivered by IV, read-out: T1/2 of degradation in rat plasma (converted)
  half-life: 1 h
[3]; rat, po, 415 mg/kg, oral, said to be consistent with hepatocyte stability in vitro, read-out: T1/2 following oral administration
  half-life: 5 to 6 h
[3]; [11]
  Cmax: 188 ± 97.2 µM
  Tmax: 8.34 ± 5.76 min
  clearance: 2.26 L/h/kg
[3]; rat, Group 2: compound 100 83 mg/kg IV, analyte compound 100 in plasma, read-out: AUC0-1
  AUC(0-t): 148 ± 34 µM·h
[3]; rat, Group 2: compound 100 83 mg/kg IV, analyte compound 100 in plasma, read-out: Vss
  Vd: 3.4 ± 1.62 L/kg
[3]
  in vivo pharmacology compared with nicotinic acid (conclusion): superior in vivo pharmacology than nicotinic acid with a longer half-life, lower maximal concentration (C), better bioavailability and has a depot effect in the kidney and liver
[3]; IV
  IV pharmacokinetics profile (in words): biphasic rapid distribution followed by elimination
[4]; Day 0
  Purity % by UP LC: 98.92%
[4]; Day 93
  Purity % by UP LC: 99.62%
[4]; stored at −15° C. for up to three months
  solid state stability (in words): stable
Human Plasma Protein
  protein binding (footnote, in words): Compounds 100 and 102 were not detected indicating no protein binding as shown in Table 12, above.
[5]
  Papp A→B: 5 nm/s
  Papp B→A: 6 nm/s
  efflux ratio: 1.2
[5]; Caco-2, % Recovery A to B
  recovery: 98.5%
[5]; Caco-2, % Recovery B to A
  recovery: 89%
[6]; 2-8° C., 0 hr
  Solid State Stability (% Purity): 96.29%
[6]; 2-8° C., 24 hr
  Solid State Stability (% Purity): 96.32%
[6]; 2-8° C., 48 hr
  Solid State Stability (% Purity): 96.28%
[6]; 25° C., 0 hr
  Solid State Stability (% Purity): 96.02%
[6]; 25° C., 24 hr
  Solid State Stability (% Purity): 96.23%
[6]; 25° C., 48 hr
  Solid State Stability (% Purity): 96.22%
[6]; −20° C., 0 hr
  Solid State Stability (% Purity): 96.33%
[6]; −20° C., 24 hr
  Solid State Stability (% Purity): 96.32%
[6]; −20° C., 48 hr
  Solid State Stability (% Purity): 96.49%
Human hepatocytes [7]
  clearance in human hepatocytes (in words): medium clearance
Human hepatocytes [7]; 0 mins
  % Parent Remaining: 100%
Human hepatocytes [7]; 15 mins
  % Parent Remaining: 97%
Human hepatocytes [7]; 30 mins
  % Parent Remaining: 87.6%
Human hepatocytes [7]; 60 mins
  % Parent Remaining: 73.0%
Human hepatocytes [7]; 90 mins
  % Parent Remaining: 66.4%

## COC(=O)[C@@H](C)NP(=O)(OC[C@H]1OC(OC(=O)c2cccnc2)[C@H](O)[C@@H]1O)Oc1ccccc1 (stereo partly drawn) [Compound 101, (3R, 4S, 5R)-3,4-dihydroxy-5-(((((1-methoxy-1-oxopropan-2-yl)amino)(phenoxy)phosphoryl)oxy)methyl)tetrahydrofuran-2-yl nicotinate]
Kinetic solubility; read-out: Mean Solubility
  solubility at 1.5 h: 117 µM
Kinetic solubility; [10]
  solubility at 1.5 h: 58 µg/mL
Kinetic solubility
  % Solubility: 100%
[2]; 1 μM, 0-90 min, read-out: T½
  half-life at 1 μM: 0.214 h
[2]; 1 μM, read-out: Intrinsic Clearance (CL Int)
  hepatocyte CLint at 1 μM: 53.9 µL/min/1e6 cells
Human hepatocytes [8]
  Remarks (clearance class): high clearance and High
Human Plasma Protein
  Remarks (binding class): Medium binding
[9]; % Bound in plasma
  fraction unbound at 5 h, 10 μM: 0.306
[9]; % Unbound in plasma
  fraction unbound at 5 h, 10 μM: 0.306
[9]; Fraction unbound
  fraction unbound at 5 h, 10 μM: 0.31
[5]
  Papp A→B: 2 nm/s
  Papp B→A: 61 nm/s
  efflux ratio: 39
[5]; Caco-2, % Recovery A to B
  recovery: 86.5%
[5]; Caco-2, % Recovery B to A
  recovery: 87.9%
[6]; 2-8° C., 0 hr
  Solid State Stability (% Purity): 93.20%
[6]; 2-8° C., 24 hr
  Solid State Stability (% Purity): 90.57%
[6]; 2-8° C., 48 hr
  Solid State Stability (% Purity): 90.59%
[6]; 25° C., 0 hr
  Solid State Stability (% Purity): 93.20%
[6]; 25° C., 24 hr
  Solid State Stability (% Purity): 89.68%
[6]; 25° C., 48 hr
  Solid State Stability (% Purity): 90.66%
[6]; −20° C., 0 hr
  Solid State Stability (% Purity): 93.20%
[6]; −20° C., 24 hr
  Solid State Stability (% Purity): 90.72%
[6]; −20° C., 48 hr
  Solid State Stability (% Purity): 90.63%
Human hepatocytes [7]
  clearance in human hepatocytes (in words): high clearance
Human hepatocytes [7]; 0 mins
  % Parent Remaining: 100%
Human hepatocytes [7]; 15 mins
  % Parent Remaining: 43%
Human hepatocytes [7]; 30 mins
  % Parent Remaining: 20.1%
Human hepatocytes [7]; 60 mins
  % Parent Remaining: 6.4%
Human hepatocytes [7]; 90 mins
  % Parent Remaining: 2.0%

## O=C(OC[C@H]1OC(O)[C@H](O)[C@@H]1O)c1ccccn1 (stereo partly shown) [Compound 102, (3,4,5-trihydroxytetrahydrofuran-2-yl) methyl picolinate]
Kinetic solubility; read-out: Mean Solubility
  solubility at 1.5 h: 105 µM
Kinetic solubility; [10]
  solubility at 1.5 h: 26.9 µg/mL
Kinetic solubility
  % Solubility: 100%
[2]
  half-life at 1 μM: 0.761 h
  hepatocyte CLint at 1 μM: 15.2 µL/min/1e6 cells
Human Plasma Protein
  protein binding (footnote, in words): Compounds 100 and 102 were not detected indicating no protein binding as shown in Table 12, above.
[5]
  Papp A→B: 9 nm/s
  Papp B→A: 8 nm/s
  efflux ratio: 1
[5]; Caco-2, % Recovery A to B
  recovery: 94.9%
[5]; Caco-2, % Recovery B to A
  recovery: 90.7%
[6]; 2-8° C., 0 hr
  Solid State Stability (% Purity): 95.28%
[6]; 2-8° C., 24 hr
  Solid State Stability (% Purity): 95.18%
[6]; 2-8° C., 48 hr
  Solid State Stability (% Purity): 95.45%
[6]; 25° C., 0 hr
  Solid State Stability (% Purity): 95.60%
[6]; 25° C., 24 hr
  Solid State Stability (% Purity): 95.55%
[6]; 25° C., 48 hr
  Solid State Stability (% Purity): 95.23%
[6]; −20° C., 0 hr
  Solid State Stability (% Purity): 95.26%
[6]; −20° C., 24 hr
  Solid State Stability (% Purity): 95.27%
[6]; −20° C., 48 hr
  Solid State Stability (% Purity): 95.28%
Human hepatocytes [7]
  clearance in human hepatocytes (in words): medium clearance
